# Source: PubChem BioAssay AID1259407 (Chemical Carcinogenesis Research Information System (CCRIS), 2018)
# Active and inactive are the calls of the source. How the calls were made is not given here.
# Test system: CCRIS mutagenicity, Ames/micronucleus/aberration tests
# Assay: CCRIS mutagenicity studies
# [1] = Test System: AMES SALMONELLA TYPHIMURIUM, Strain/Indicator: TA98, Metabolic Activation: NONE, Method: PREINCUBATION
# [2] = Test System: AMES SALMONELLA TYPHIMURIUM, Strain/Indicator: TA100, Metabolic Activation: NONE, Method: PREINCUBATION
# [3] = Test System: AMES SALMONELLA TYPHIMURIUM, Strain/Indicator: TA100, Metabolic Activation: NONE, Method: STANDARD PLATE
smiles,measurement,setting,value
CCC[C@]1(O)CC[C@H]2[C@@H]3CC[C@H]4CC(=O)C[C@H](C)[C@]4(C)[C@H]3CC[C@@]21C,mutagenic call,"End Point: IN VITRO CHROMOSOMAL ABERRATIONS, Test System: HUMAN PERIPHERAL LYMPHOCYTES, Metabolic Activation: NONE",inactive; negative
same,mutagenic call,"End Point: IN VITRO CHROMOSOMAL ABERRATIONS, Test System: HUMAN PERIPHERAL LYMPHOCYTES, Metabolic Activation: RAT, LIVER, S-9, AROCLOR 1254",inactive; negative
same,mutagenic call,"End Point: IN VIVO MICRONUCLEUS, Test System: BONE MARROW POLYCHROMATIC ERYTHROCYTES, Species: MOUSE, Strain/Sex: NMRI/MALE, FEMALE, Route: SUBCUTANEOUS INJECTION",inactive; negative
same,mutagenic call,[1],inactive; negative
same,mutagenic call,"Test System: AMES SALMONELLA TYPHIMURIUM, Strain/Indicator: TA98, Metabolic Activation: NONE, Method: STANDARD PLATE",inactive; negative
same,mutagenic call,"Test System: AMES SALMONELLA TYPHIMURIUM, Strain/Indicator: TA98, Metabolic Activation: RAT, LIVER, S-9, AROCLOR 1254, Method: PREINCUBATION",inactive; negative
same,mutagenic call,"Test System: AMES SALMONELLA TYPHIMURIUM, Strain/Indicator: TA98, Metabolic Activation: RAT, LIVER, S-9, AROCLOR 1254, Method: STANDARD PLATE",inactive; negative
same,mutagenic call,[2],inactive; negative
same,mutagenic call,[3],inactive; negative
same,mutagenic call,"Test System: AMES SALMONELLA TYPHIMURIUM, Strain/Indicator: TA100, Metabolic Activation: RAT, LIVER, S-9, AROCLOR 1254, Method: PREINCUBATION",inactive; negative
same,mutagenic call,"Test System: AMES SALMONELLA TYPHIMURIUM, Strain/Indicator: TA100, Metabolic Activation: RAT, LIVER, S-9, AROCLOR 1254, Method: STANDARD PLATE",inactive; negative
same,mutagenic call,"Test System: AMES SALMONELLA TYPHIMURIUM, Strain/Indicator: TA1535, Metabolic Activation: NONE, Method: PREINCUBATION",inactive; negative
same,mutagenic call,"Test System: AMES SALMONELLA TYPHIMURIUM, Strain/Indicator: TA1535, Metabolic Activation: NONE, Method: STANDARD PLATE",inactive; negative
same,mutagenic call,"Test System: AMES SALMONELLA TYPHIMURIUM, Strain/Indicator: TA1535, Metabolic Activation: RAT, LIVER, S-9, AROCLOR 1254, Method: PREINCUBATION",inactive; negative
same,mutagenic call,"Test System: AMES SALMONELLA TYPHIMURIUM, Strain/Indicator: TA1535, Metabolic Activation: RAT, LIVER, S-9, AROCLOR 1254, Method: STANDARD PLATE",inactive; negative
same,mutagenic call,"Test System: AMES SALMONELLA TYPHIMURIUM, Strain/Indicator: TA1537, Metabolic Activation: NONE, Method: PREINCUBATION",inactive; negative
same,mutagenic call,"Test System: AMES SALMONELLA TYPHIMURIUM, Strain/Indicator: TA1537, Metabolic Activation: NONE, Method: STANDARD PLATE",inactive; negative
same,mutagenic call,"Test System: AMES SALMONELLA TYPHIMURIUM, Strain/Indicator: TA1537, Metabolic Activation: RAT, LIVER, S-9, AROCLOR 1254, Method: PREINCUBATION",inactive; negative
same,mutagenic call,"Test System: AMES SALMONELLA TYPHIMURIUM, Strain/Indicator: TA1537, Metabolic Activation: RAT, LIVER, S-9, AROCLOR 1254, Method: STANDARD PLATE",inactive; negative
same,mutagenic call,"Test System: AMES SALMONELLA TYPHIMURIUM, Strain/Indicator: TA1538, Metabolic Activation: NONE, Method: PREINCUBATION",inactive; negative
same,mutagenic call,"Test System: AMES SALMONELLA TYPHIMURIUM, Strain/Indicator: TA1538, Metabolic Activation: NONE, Method: STANDARD PLATE",inactive; negative
same,mutagenic call,"Test System: AMES SALMONELLA TYPHIMURIUM, Strain/Indicator: TA1538, Metabolic Activation: RAT, LIVER, S-9, AROCLOR 1254, Method: PREINCUBATION",inactive; negative
same,mutagenic call,"Test System: AMES SALMONELLA TYPHIMURIUM, Strain/Indicator: TA1538, Metabolic Activation: RAT, LIVER, S-9, AROCLOR 1254, Method: STANDARD PLATE",inactive; negative
same,mutagenic call,"Test System: CHINESE HAMSTER V-79, Strain/Indicator: V-79 (HGPRT)/6-THIOGUANINE, Metabolic Activation: NONE",inactive; negative
same,mutagenic call,"Test System: CHINESE HAMSTER V-79, Strain/Indicator: V-79 (HGPRT)/6-THIOGUANINE, Metabolic Activation: RAT, LIVER, S-9, AROCLOR 1254",inactive; negative
CC(=O)Nc1nc(-c2ccc([N+](=O)[O-])o2)cs1,mutagenic call,"Test System: AMES SALMONELLA TYPHIMURIUM, Strain/Indicator: TA100, Metabolic Activation: RAT, LIVER, S-9, KC500 OR PHENOBARBITAL, Method: LIQUID SUSPENSION",active; positive
same,mutagenic call,"Test System: E. COLI WP2, Strain/Indicator: WP2, Metabolic Activation: NONE, Method: SPOT",active; positive
Cc1cc(=O)oc2c3c(ccc12)C1(C)OOC1(C)O3 (configuration not stated),mutagenic call,[2],active; positive
O=C1OC(O)C(Cl)=C1Cl (configuration not stated),mutagenic call,[3],active; positive
same,mutagenic call,"Test System: UDS RAT HEPATOCYTES, Strain/Indicator: THYMIDINE INCORPORATION, Metabolic Activation: NONE, Method: AUTORADIOGRAPHY",active; positive
CCCC(=O)N=c1sn(C(=O)CCC)c2ccc([N+](=O)[O-])cc12,mutagenic call,"Test System: AMES SALMONELLA TYPHIMURIUM, Strain/Indicator: TA100, Metabolic Activation: S-9, Method: STANDARD PLATE",active; positive
Nc1ccc2cccnc2c1,mutagenic call,[1],inactive; negative
same,mutagenic call,"Test System: AMES SALMONELLA TYPHIMURIUM, Strain/Indicator: TA98, Metabolic Activation: RAT, LIVER, S-9, KANECHLOR 500 OR PHENOBARBITAL AND BETA-NAPHTHOFLAVONE, Method: PREINCUBATION",active; positive
same,mutagenic call,[2],active; positive
same,mutagenic call,"Test System: AMES SALMONELLA TYPHIMURIUM, Strain/Indicator: TA100, Metabolic Activation: RAT, LIVER, S-9, KANECHLOR 500 OR PHENOBARBITAL AND BETA-NAPHTHOFLAVONE, Method: PREINCUBATION",active; positive
O=[N+]([O-])C1CCCCC1,mutagenic call,"Test System: UDS RAT HEPATOCYTES, Strain/Indicator: THY INCORP, Metabolic Activation: NONE",active; positive
Nc1cccc2nc3ccccc3nc12,mutagenic call,[1],active; positive
same,mutagenic call,"Test System: AMES SALMONELLA TYPHIMURIUM, Strain/Indicator: TA98, Metabolic Activation: RAT, LIVER, S-9, PCB, Method: PREINCUBATION",inactive; negative
Cc1c[nH]c(=O)[nH]c1=O,mutagenic call,"Test System: CHINESE HAMSTER V-79, Strain/Indicator: V-79 (HPRT)/6-THIOGUANINE, Metabolic Activation: NONE, Method: STANDARD PLATE",inactive; negative
c1ccc2c(c1)-c1cc3ccccc3c3cc4ccccc4c-2c13,mutagenic call,"Test System: AMES SALMONELLA TYPHIMURIUM, Strain/Indicator: TA100, Metabolic Activation: MOUSE, LIVER, S-9, 3-METHYLCHOLANTHRENE, Method: STANDARD PLATE",active; positive
same,mutagenic call,"Test System: AMES SALMONELLA TYPHIMURIUM, Strain/Indicator: TA100, Metabolic Activation: RAT, LIVER, S-9, 3-METHYLCHOLANTHRENE, Method: STANDARD PLATE",active; positive
same,mutagenic call,"Test System: HUMAN H1A1V2 CELLS, Strain/Indicator: TK LOCUS, Metabolic Activation: NONE, Method: SUSPENSION/PLATE",active; positive
